Measurements as given in patent US9359298B2, “Cajanine structure analogous compound, preparation method and use” (INSTITUTE OF MEDICINAL BIOTECHNOLOGY, CHINESE ACADEMY OF …, priority 2011, dated 2016).
Values after ≈ are worked out from the molar mass of the structure shown. Read-outs that look alike come from different tables or passages of the source.

What was measured:
Assay type in all cases: cell-based
HCV = test: Anti-hepatitis C virus (HCV) activity assay (HCV RNA in Huh7.5 cells); details: for EC50: Hepatitis C virus, Huh7.5, 72 h, read-out: HCV EC50; for anti-HCV viral activity: statement in words
Method: Inoculate Huh7.5 cells into 96-well plates to a density of 3×10^4 cells/cm^2, culture for 24h, infect the cells with 45 IU/cell HCV supernatant, meanwhile, add drug solutions or solvent control for treatment.

[1] = system: Influenza A virus (hanfang359/95); test: Determination of anti-influenza virus activity (CPE in MDCK cells); details: for IC50: Influenza A virus, MDCK, 36 h; for anti-influenza virus activities compared with the lead compound cajanine: statement in words
Coxsackie virus B6 = test: Coxsackie virus activity assay (CPE in Vero cells); details: Vero
PC12 cells [2] = test: Neuroprotective activity assay, serum-deprived injury to PC12 cells (MTT); details: for viability at 10 µM: Rattus norvegicus, PC-12, 48 h, read-out: serum-deprived (surviving PC12 cells, MTT 570 nm); for protective effect on serum-deprived injury to PC12 cells: statement in words
How it was run: (§1)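 PC12 cells on poly-lysine plated 24 h, then injured 48 h by serum-free DMEM or 4 μM rotenone with 10 μM test compound present during injury. Viability read by MTT (4 h), absorbance 570 nm.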

HIV-1 III B virus = test: Anti-HIV activity assay (P24 antigen in MT-4 cells); details: for IC50: Human immunodeficiency virus 1, MT4, 96 h, read-out: HIV IC50; for anti-HIV viral activity: statement in words
PC12 cells [3] = test: Neuroprotective activity assay, rotenone injury to PC12 cells (MTT); details: for viability at 10 µM: Rattus norvegicus, PC-12, 48 h, read-out: rotenone (surviving PC12 cells, MTT 570 nm); for protective effect on rotenone injury to PC12 cells: statement in words
How it was run: as §1

[4] = Huh7.5 cells, 72 h, HCV RNA by RT-PCR, Reed-Muench
[5] = read-out: COX-B6 IC50, Vero cells, about 100TCID50, CPE, Reed-Muench
[6] = 10 μM test compound, 48 h, Control 100.0 ± 9.2, Model 69.3 ± 4.1
[7] = MT-4 cells, HIV-1 III B 100TCID50, 96 h, P24 antigen
[8] = 10 μM test compound, 4 μM rotenone, 48 h, Control 100.0 ± 8.9, Model 73.2 ± 7.8

Row | SMILES | EC50 (HCV; [4]) | IC50 [1] | IC50 (Coxsackie virus B6; [5]) | viability at 10 µM (PC12 cells [2]; [6]) | IC50 (HIV-1 III B virus; [7]) | viability at 10 µM (PC12 cells [3]; [8]) | IC50 (Coxsackie virus B6; read-out: COX-B6 IC50) | protective effect on serum-deprived injury to PC12 cells (PC12 cells [2]) | protective effect on rotenone injury to PC12 cells (PC12 cells [3]) | anti-influenza virus activities compared with the lead compound cajanine [1] | anti-HCV viral activity (HCV) | anti-HIV viral activity (HIV-1 III B virus) | EC50 (HCV) | viability at 10 µM (PC12 cells [2]) | IC50 (HIV-1 III B virus) | viability at 10 µM (PC12 cells [3])
1 | COC(=O)c1c(O)cc(OC)c(CC=C(C)C)c1/C=C/c1ccccc1 [Compound 18, methyl 2-hydroxy-4-methoxy-5-isopentenyl-6-[(E)-styryl]benzoate] | 8.51 µg/mL (≈ 24.1 µM) | > 18.5 µg/mL | > 6.17 µg/mL | 77.8 ± 6.3% | 0.34 µg/mL (≈ 0.965 µM) | 74.9 ± 2.9% |  |  |  |  |  |  |  |  |  | 
2 | COc1cc(/C=C/Cc2ccccc2)cc(OC)c1 [Compound 21a, 1,3-dimethoxy-5-[(E)-3-phenylpropen-1-yl]benzene] | 2.83 µg/mL (≈ 11.1 µM) | 1.32 µg/mL (≈ 5.19 µM) | 4.23 µg/mL (≈ 16.6 µM) | 81.2 ± 2.4% | 1.1 µg/mL (≈ 4.33 µM) | 80.5 ± 2.3% |  |  |  |  |  |  |  |  |  | 
3 | Oc1cc(O)cc(/C=C/Cc2ccccc2)c1 [Compound 21b, 1,3-dihydroxy-5-[(E)-3-phenylpropen-1-yl]benzene] | 1.47 µg/mL (≈ 6.5 µM) | 2.54 µg/mL (≈ 11.2 µM) | 3.26 µg/mL (≈ 14.4 µM) | 74.6 ± 3.5% | 0.88 µg/mL (≈ 3.89 µM) | 78.9 ± 6.8% |  |  |  |  |  |  |  |  |  | 
4 | COc1cc(/C=C/c2ccc(OC)c(O)c2)cc(OC)c1 [Compound 21d, 1,3-dimethoxy-5-[(E)-3-hydroxy-4-methoxy-styryl]benzene] | 3.37 µg/mL (≈ 11.8 µM) | 5.42 µg/mL (≈ 18.9 µM) |  | 88.7 ± 6.3% | 0.63 µg/mL (≈ 2.2 µM) | 89.8 ± 2.8% | 7.98 µg/mL (≈ 27.9 µM) | the strongest activities | the strongest activities |  |  |  |  |  |  | 
5 | Oc1cc(O)cc(/C=C/c2ccc(O)c(O)c2)c1 [Compound 21e, 1,3-dihydroxy-5-[(E)-3,4-dihydroxystyryl]benzene] | 2.06 µg/mL (≈ 8.43 µM) | 2.38 µg/mL (≈ 9.74 µM) | 4.86 µg/mL (≈ 19.9 µM) | 85.6 ± 4.2% | 6.33 µg/mL (≈ 25.9 µM) | 87.4 ± 2.5% |  |  |  |  |  |  |  |  |  | 
6 | COc1cc(/C=C(\C)c2cc(O)cc(O)c2)cc(OC)c1 [Compound 21g, 1,3-dimethoxy-5-[(E)-2-(3,5-dihydroxyphenyl)propen-1-yl]benzene] | 0.9 µg/mL (≈ 3.14 µM) | 4.25 µg/mL (≈ 14.8 µM) | 6.84 µg/mL (≈ 23.9 µM) | 80.2 ± 1.5% | 1.27 µg/mL (≈ 4.44 µM) | 82.3 ± 3.1% |  |  |  |  |  |  |  |  |  | 
7 | C/C(=C\c1cc(O)cc(O)c1)c1cc(O)cc(O)c1 [Compound 21h, 1,3-dihydroxy-5-[(E)-2-(3,5-dihydroxyphenyl)propen-1-yl]benzene] | 4.46 µg/mL (≈ 17.3 µM) | 5.84 µg/mL (≈ 22.6 µM) | 6.98 µg/mL (≈ 27 µM) | 74.8 ± 2.6% | 5.28 µg/mL (≈ 20.4 µM) | 71.2 ± 3.8% |  |  |  |  |  |  |  |  |  | 
8 | COc1cc(/C=C/c2cc(O)c(O)c(O)c2)cc(OC)c1 [Compound 21j, 1,3-dimethoxy-5-[(E)-3,4,5-trihydroxystyryl]benzene] | 1.33 µg/mL (≈ 4.61 µM) | 0.98 µg/mL (≈ 3.4 µM) | 1.34 µg/mL (≈ 4.65 µM) | 69.3 ± 2.5% | 1.04 µg/mL (≈ 3.61 µM) | 75.6 ± 4.6% |  |  |  |  |  |  |  |  |  | 
9 | Oc1cc(O)cc(/C=C/c2cc(O)c(O)c(O)c2)c1 [Compound 21k, 1,3-dihydroxy-5-[(E)-3,4,5-trihydroxystyryl]benzene] | 8.36 µg/mL (≈ 32.1 µM) | 0.54 µg/mL (≈ 2.07 µM) | 0.78 µg/mL (≈ 3 µM) | 74.5 ± 5.8% | 10.3 µg/mL (≈ 39.7 µM) | 71.3 ± 8% |  |  |  | significantly stronger than the lead compound cajanine |  |  |  |  |  | 
10 | COc1cc(/C=C/c2ccccc2)c(C(=O)n2ccnc2)c(O)c1CC=C(C)C [Compound 22, (E)-(2-hydroxy-3-isopentenyl-4-methoxy-6-styrylphenyl)(1H-imidazol-1-yl)ketone] | 0.68 µg/mL (≈ 1.75 µM) | 1.25 µg/mL (≈ 3.22 µM) | 2.37 µg/mL (≈ 6.1 µM) | 87.8 ± 2.9% | 0.35 µg/mL (≈ 0.901 µM) | 85.6 ± 1.6% |  |  |  |  |  |  |  |  |  | 
11 | COc1cc(/C=C/c2ccccc2)c(C(=O)NC(N)=O)c(O)c1CC=C(C)C [Compound 23a, N-aminoformyl-2-hydroxy-3-isopentenyl-4-methoxy-6-[(E)-styryl]benzamide] | 0.66 µg/mL (≈ 1.73 µM) | 0.09 µg/mL (≈ 0.237 µM) | 0.32 µg/mL (≈ 0.841 µM) | 87.9 ± 5.8% | 0.74 µg/mL (≈ 1.95 µM) | 85.6 ± 8.7% |  |  |  | significantly stronger than the lead compound cajanine | stronger anti-HIV, HCV viral activities | stronger anti-HIV, HCV viral activities |  |  |  | 
12 | COc1cc(/C=C/c2ccccc2)c(C(=O)NC(=N)N)c(O)c1CC=C(C)C [Compound 23b, N-amidino-2-hydroxy-3-isopentenyl-4-methoxy-6-[(E)-styryl]benzamide] | 0.53 µg/mL (≈ 1.4 µM) | 0.13 µg/mL (≈ 0.343 µM) | 0.24 µg/mL (≈ 0.632 µM) | 79.8 ± 4.6% | 3.9 µg/mL (≈ 10.3 µM) | 81.3 ± 5% |  |  |  | significantly stronger than the lead compound cajanine | stronger anti-HIV, HCV viral activities | stronger anti-HIV, HCV viral activities |  |  |  | 
13 | COc1cc(/C=C/c2ccccc2)c(C(=O)O)c(OC(=O)CN)c1CC=C(C)C [Compound 24b, 2-Aminoacetoxy-3-isopentenyl-4-methoxy-6-[(E)-styryl]benzoic acid] | 1.68 µg/mL (≈ 4.25 µM) | 4.25 µg/mL (≈ 10.7 µM) | 1.24 µg/mL (≈ 3.14 µM) | 89.7 ± 5.6% | 2.01 µg/mL (≈ 5.08 µM) | 88.3 ± 5.2% |  |  |  |  |  |  |  |  |  | 
14 | COc1cc(/C=C/c2ccccc2)c(C(=O)O)c(OC(C)=O)c1CC=C(C)C [Compound 24h] | 2.39 µg/mL (≈ 6.28 µM) | 0.45 µg/mL (≈ 1.18 µM) | 1.21 µg/mL (≈ 3.18 µM) | 88.9 ± 5.4% | 1.33 µg/mL (≈ 3.5 µM) | 87.8 ± 6.3% |  |  |  |  |  |  |  |  |  | 
15 | COc1cc(/C=C/c2ccccc2)c(C(=O)O)c(OC(=O)c2cccnc2)c1CC=C(C)C [Compound 24k, 2-(pyridyl-3-formylox)-3-isopentenyl-4-methoxy-6-[(E)-styryl]benzoic acid] | 4.87 µg/mL (≈ 11 µM) | 3.55 µg/mL (≈ 8 µM) | 1.36 µg/mL (≈ 3.07 µM) | 89.6 ± 2.3% | 2.17 µg/mL (≈ 4.89 µM) | 85.6 ± 2.1% |  | the strongest activities | the strongest activities |  |  |  |  |  |  | 
16 | COc1cc(/C=C/c2ccccc2)c(C(=O)O)c(OC(=O)CN(C)C)c1CC=C(C)C [Compound 24n, 2-(N,N-dimethylacetyloxy)-3-isopentenyl-4-methoxy-6-[(E)-styryl]benzoic acid] | 1.97 µg/mL (≈ 4.65 µM) | 7.21 µg/mL (≈ 17 µM) | 1.35 µg/mL (≈ 3.19 µM) | 75.8 ± 3.2% | 3.12 µg/mL (≈ 7.37 µM) | 79.8 ± 5.6% |  |  |  |  |  |  |  |  |  | 
17 | COc1cc(/C=C/c2ccccc2)c(C(=O)O)c(OC(=O)c2cnc[nH]2)c1CC=C(C)C [Compound 24q] | 1.54 µg/mL (≈ 3.56 µM) | 1.98 µg/mL (≈ 4.58 µM) | 1.35 µg/mL (≈ 3.12 µM) | 92.3 ± 1.2% | 2.85 µg/mL (≈ 6.59 µM) | 90.5 ± 5.6% |  | the strongest activities | the strongest activities |  |  |  |  |  |  | 
18 | COc1cc(/C=C/c2ccccc2)c(C(=O)O)c(OCN)c1CC=C(C)C [Compound 26b, 2-aminomethoxy-3-isopentenyl-4-methoxy-6-[(E)-styryl]benzoic acid] | 5.66 µg/mL (≈ 15.4 µM) | 3.65 µg/mL (≈ 9.93 µM) | 3.54 µg/mL (≈ 9.63 µM) | 88.2 ± 4.1% | 7.83 µg/mL (≈ 21.3 µM) | 89.7 ± 6.3% |  |  |  |  |  |  |  |  |  | 
19 | COc1cc(/C=C/c2ccccc2)c(C(=O)O)c(OCC2CNCCN2)c1CC=C(C)C (stereo not drawn) [Compound 26e, 2-(piperazin-2-yl)methoxy-3-isopentenyl-4-methoxy-6-[(E)-styryl]benzoic acid] | 2.28 µg/mL (≈ 5.22 µM) | 2.31 µg/mL (≈ 5.29 µM) | 1.32 µg/mL (≈ 3.02 µM) | 85.6 ± 2.9% | 2.77 µg/mL (≈ 6.35 µM) | 87.6 ± 5.6% |  |  |  |  |  |  |  |  |  | 
20 | COc1cc(/C=C/c2ccccc2)c(C(=O)O)c(OC(=N)N)c1CC=C(C)C [Compound 27b, 2-iso-ureido-3-isopentenyl-4-methoxy-6-[(E)-styryl]benzoic acid] | 1.83 µg/mL (≈ 4.81 µM) | 2.14 µg/mL (≈ 5.63 µM) | 1.24 µg/mL (≈ 3.26 µM) | 91.5 ± 6.1% | 4.91 µg/mL (≈ 12.9 µM) | 92.3 ± 2.6% |  | the strongest activities | the strongest activities |  |  |  |  |  |  | 
21 | COc1cc(/C=C/c2ccccc2)c(C(=O)O)c(OC(=O)NN)c1CC=C(C)C [Compound 29b, 2-Hydrazinoformyloxy-3-isopentenyl-4-methoxy-6-[(E)-styryl]benzoic acid] |  | 1.21 µg/mL (≈ 3.05 µM) |  |  |  |  | 0.67 µg/mL (≈ 1.69 µM) |  |  |  |  |  | 1.36 µg/mL (≈ 3.43 µM) | 74.5 ± 4.6% | 1.88 µg/mL (≈ 4.74 µM) | 78.9 ± 5.6%
22 | COc1cc(/C=C/c2ccccc2)c(C(=O)O)c(OC(=O)C(=O)O)c1CC=C(C)C [Compound 31b, 2-carboxyformyloxy-3-isopentenyl-4-methoxy-6-[(E)-styryl]benzoic acid] | 0.99 µg/mL (≈ 2.41 µM) | 0.54 µg/mL (≈ 1.32 µM) | 1.21 µg/mL (≈ 2.95 µM) | 88.6 ± 2.6% | 2.8 µg/mL (≈ 6.82 µM) | 80.5 ± 6.4% |  |  |  | significantly stronger than the lead compound cajanine | stronger anti-HIV, HCV viral activities | stronger anti-HIV, HCV viral activities |  |  |  | 
